Measured values as given in publication PMC6696049, “Pharmacophoric Site Identification and Inhibitor Design for Autotaxin” (Molecules, 2019).

Assays:
human ENPP2 = human ENPP2 (Homo sapiens, UniProt Q13822); test: In vitro bis-pNPP assay (ATX inhibitory activity); type: biochemical; conditions: for IC50: in vitro bis-pNPP assay, human ENPP2
Description: We confirmed the ATX inhibitory activity of each compound using bis-pNPP assay. First, 50 μL of 60 mM Tris-HCl (pH 9.0) solution was poured into a 96-well plate and 10 μL of the test compound solution (10% dimethyl sulfoxide) was added. Subsequently, 20 μL of a 3.75 nM human ENPP2 solution (buffer: 50 mM Tris-HCl (pH 8.5), 5 mM CaCl2, 2.5 mM MgCl2, 0.002% Brij 35) and 20 μL of 25 mM bis-pNPP solution (buffer: 50 mM Tris-HCl (pH 9.0)) were added and mixed. Spectrophotometric measurement was carried out at 405 nm at intervals of 10 s while reacting under 37 °C for 10 min.

ATX = molecular target: T1, ATX (Homo sapiens, UniProt Q13822); test: Ex vivo human plasma assay (LPC to LPA, LC-MS/MS); type: biochemical; conditions: 37 °C, 3 h
T1 construct: from tissue; host or cells: human plasma / serum
Description: First, 5 μL of each test compound solution (10 mM, 100% dimethyl sulfoxide) was diluted 100 times with 495 μL of methanol and then 3 μL of a diluted methanol solution (1% dimethyl sulfoxide) was added to a human or rat serum solution. Next, 12 μL of the test compound solution was mixed into 48 μL of 100% serum in order to make 5 concentrations, and each tube was placed in a constant temperature water bath at 37 °C for 15 min. Subsequently, 10 mg/mL 18: 1 LPC solution (50% ethanol) was diluted to 375 μg/mL with serum and 2 μL was dispensed into each tube to make 50 μL. Each tube was reacted in a constant temperature water bath at 37 °C for 3 h. Then, 100 μL of a 0.5 μM 17:0 LPA solution (Chloroform/Methanol/Water = 65/35/8) was added to the reaction tube. Reaction mixture was centrifuged at 14,000 rpm, at 4 °C for 10 min in a centrifuge. Thereafter, 100 μL of 50% methanol solution was first dissolved in a 96-well polypropylene plate (Agilent Technologies 5042-1385, Santa Clara, CA, USA), and then 50 μL of the supernatant was carefully transferred from the centrifuged tube to the plate. Then, it was covered with a well cap (Thermo 276011, Thermo Fisher Scientific Solutions LLC, Seoul, Korea) and analyzed by LC-MS/MS (Agilent 1260).

| IC50 (human ENPP2) [nM] | potency relative to compound 1 in the bis-pNPP assay (human ENPP2; ratio of bis-pNPP IC50 values, compound 2 vs compound 1) | IC50 (ATX) [nM] | Compound |
| --- | --- | --- | --- |
| 12.7 |  |  | NS(=O)(=O)Nc1ccc(C(=O)Nc2ccc3c(c2)CN(C(=O)OCc2cc(Cl)cc(Cl)c2)C3)cc1 [Compound 4, (3,5-dichlorophenyl)methyl 5-[4-(sulfamoylamino)benzamido]-2,3-dihydro-1H-isoindole-2-carboxylate] |
| 44.5 | five-fold more potent |  | NS(=O)(=O)Nc1ccc(C(=O)NC2CCN(C(=O)OCc3cc(Cl)cc(Cl)c3)CC2)cc1 [Compound 2, (3,5-dichlorophenyl)methyl 4-[4-(sulfamoylamino)benzamido]piperidine-1-carboxylate] |
| 3.86 |  | 827 | NS(=O)(=O)Nc1ccc(NC(=O)c2ccc3c(c2)CN(C(=O)OCc2cc(Cl)cc(Cl)c2)C3)cc1 [Compound 3, (3,5-dichlorophenyl)methyl 5-{[4-(sulfamoylamino)phenyl]carbamoyl}-2,3-dihydro-1H-isoindole-2-carboxylate] |
